In patent publication US20250114487A1, “COMBINATION TREATMENT OF TUMORS” (The University of Chicago, priority 2023, published 2025):
Read-outs that look alike come from different tables or passages of the source.

Tests used:
GOT-1 cells = experiment: In vitro radiosensitization, GOT-1 cells; type: cell-based
Excerpt: (§1) For in vitro experiments, various neuroendocrine tumor (NET) cell lines were used from different primary tumor origins. Specifically, pancreatic cells (QGP-1), small bowel cells (GOT-1), and lung cells (NCI-H727) were used. Cells were supplemented with estrogen (E2)-free or E2-supplemented media to determine the effects of E2 on cell proliferation and DNA repair factors. ESR1 was inhibited by si-RNA mediated knockdown of ESR1 or by administration of the selective estrogen receptor degrader Fulvestrant. Knockdown of ESR1 was achieved using […] siRNA. qPCR was performed to verify knockdown by quantifying ESR1 mRNA levels. For administration of Fulvestrant, 100 nm Fulvestrant was used.
(§2) Radiation (IR) was administered using a dose of 4 Gy using external beam radiation therapy (EBRT). Radiation was administered 24 hours following ESR1 inhibition.
(§3) Cells were treated with […] siRNA against ESR1 followed by irradiation (4 Gy dose), or treated with Fulvestrant followed by irradiation (4 Gy dose). […] Without wishing to be bound by theory, it is possible that estrogen inhibition radiosensitizes cells by decreasing expression of genes involved in DNA repair pathways. This was evaluated by measuring mRNA levels of DNA repair factors Rad51, BRCA1, and BRCA2 following treatment of QGP-1 cells with Fulvestrant for 36 hours or 72 hours.

QGP1 cells = experiment: QGP1 cell number after irradiation in the presence or absence of estrogen; type: cell-based; details: 3.5 days after irradiation (4 Gy)
Protocol: Additional experiments were conducted to further evaluated the mechanism behind fulvestrant-induced radiosensitization. QGP1 cells were cultured in the presence or absence of estrogen and treated with fulvestrant, irradiation, or fulvestrant and irradiation. The number of cells were evaluated 3.5 days after irradiation (4 Gy). […] This is a strong indication that the effect of fulvestrant is off-target and not through the estrogen receptor pathway. RNA sequencing experiments were conducted to further evaluate the potential mechanism behind radiosensitization.

QGP-1 cells [1] = experiment: Cell counting after irradiation with Fulvestrant and PARPi Talazoparib, QGP-1 cells; type: cell-based; details: fulvestrant in combination with irradiation vs fulvestrant alone, 3 days after irradiation
Excerpt: Total number of cells were counted 3 days after irradiation.

SSTR2 = experiment: Western blot of SSTR2 levels, SSTR2 positive QGP1 cells; type: cell-based; details: SSTR2 positive QGP1 cells treated with fulvestrant or fulvestrant and irradiation
[2] = tested on: ESR1, Rad51, BRCA1, BRCA2 mRNA; experiment: qPCR of mRNA expression of DNA repair factors in QGP-1 cells; type: cell-based; details: QGP-1 cells treated with Fulvestrant for 36 hours or 72 hours
Protocol: For in vitro experiments, various neuroendocrine tumor (NET) cell lines were used from different primary tumor origins. Specifically, pancreatic cells (QGP-1), small bowel cells (GOT-1), and lung cells (NCI-H727) were used. Cells were supplemented with estrogen (E2)-free or E2-supplemented media to determine the effects of E2 on cell proliferation and DNA repair factors. […] Knockdown of ESR1 was achieved using 30 uM siRNA. qPCR was performed to verify knockdown by quantifying ESR1 mRNA levels.
QGP-1 cells were growth in media with standard fetal bovine serum (WT), E2-free media for 7 days, or E-2 free media for 2 days followed by growth in E2 media containing 1 uM E2 additive for 24 hours. mRNA expression of DNA repair factors was evaluated by qPCR.

ER36 or ER56 [3] = experiment: Western blot of ERα isoform levels, QGP1 cells; type: cell-based; details: 100 mM fulvestrant
Protocol: (§4) Western blot analysis was conducted in various NET cell lines to investigate expression levels of various ERα isoforms. The breast cancer cell line MCF7 was used as a positive control. […] In contrast, the most common isoform of ERα, ER66 kDa, was not present in QGP1 cells, as compared to MCF7. Expression of ER36 was further verified in NCI-H727 cells (FIG. 8B). Expression of ER56 was further verified in NCI-H727 cells and BON1 cells (FIG. 8C). […] Without wishing to be bound by theory, it is possible that this lack of effect of fulvestrant is because ER36 and ER 56 lack the […] binding region to which fulvestrant binds. […] (FIG. 8E).

ER36 or ER56 [4] = experiment: Western blot of ERα isoform levels, NCI-H727 cells; type: cell-based; parameters: dose or concentration left out as unconfirmed; details: fulvestrant
Protocol: as §4

QGP1.SSTR2 cells [5] = experiment: Additional clonogenic assays, QGP1.SSTR2 cells; type: cell-based; details: single agent (5.6 μCi Lu-177 DOTA-TATE or fulvestrant) compared to untreated cells
Protocol: Additional clonogenic assays and in-vivo experiments were conducted using Lu-177 DOTA-TATE in combination with Fulvestrant. […] Results are quantified in FIG. 12B. Treatment with Lu-177-DOTA-TATE alone decreased the number of colonies compared to untreated cells and cells treated with fulvestrant alone. Treatment with fulvestrant alone decreased the number of colonies compared to untreated cells.

QGP-1 tumors = experiment: In vivo radiosensitization, mouse xenograft model with QGP-1 tumors; details: for cumulative survival: IR (4 Gy) + 5 mg Fulvestrant subcutaneously compared to irradiation alone and Fulvestrant alone; for tumor volume size: compared to control groups
Protocol: For in vivo experiments, a mouse xenograft model created using QGP-1 cells was used.
as §2
Radiosensitization was subsequently evaluated in vivo using a mouse model harboring QGP-1 tumors. Four different treatment groups were used. One group was a control that received neither irradiation nor fulvestrant. The second group received fulvestrant alone (5 mg, subcutaneous). The third group received irradiation alone. The fourth group received irradiation and fulvestrant (5 mg. subcutaneous). Tumor volume and overall survival was evaluated. Tumor volume was evaluated at day 7, day 15, day 24, and day 35 post treatment. […] Control mice were euthanized between day 15 and day 24 due to deteriorating health. At day 24 and day 35, no control mice were surviving and as such results presented therein only show treatment with fulvestrant, treatment with irradiation, or treatment with fulvestrant and irradiation.

QGP-1 cells [6] = experiment: In vitro radiosensitization, QGP-1 cells; type: cell-based; details: 3.5 days following 100 nM Fulvestrant + IR (4 Gy) vs IR alone
Excerpt: as §1, §2, §3

QGP1.SSTR2 mice = experiment: In vivo PRRT sensitization, xenograft mice (QGP1.SSTR2)
Protocol: In vivo studies were conducted in mice. […] Tumor volume and survival was assessed up to 100 days post injection.

[7] = tested on: QGP1.SSTR2 cells or QGP1 cells not expressing SSTR2
Protocol: Cells were treated with PRRT alone, or PRRT in combination with estrogen receptor inhibition or all-trans-retinoic acid (ATRA).

QGP1.SSTR2 cells [8] = details: 5.6 μCi dose of Lu-177 DOTA-TATE, alone or with 1 uM ATRA or 100 nM Fulvestrant
Protocol: For in vitro studies, QGP1 cells (pancreatic NET cells) were engineered to express luciferase (QGP1.luc) or to express luciferase and overexpress the somatostatin receptor 2 (SSTR2) (QGP1.SSTR2.luc). Cells were treated with PRRT alone, or PRRT in combination with estrogen receptor inhibition or all-trans-retinoic acid (ATRA).

For `C[C@]12CC[C@@H]3c4ccc(O)cc4C[C@@H](CCCCCCCCC[S+]([O-])CCCC(F)(F)C(F)(F)F)[C@H]3[C@@H]1CC[C@@H]2O` (some centres unmarked) [Fulvestrant], the total cell growth (GOT-1 cells; 3.5 days following 100 nM Fulvestrant + irradiation (4 Gy) vs irradiation alone) was “significant decrease”, the total cell (GOT-1 cells; 5 days following 100 nM Fulvestrant + IR (4 Gy) vs IR alone) was “significant decrease” and the “radiosensitization (number of cells)” value (QGP1 cells) was “radiosensitizes cells regardless of whether estrogen was present or not present”. For the same compound, the cell death (QGP-1 cells [1]) was “increases cell death”, the SSTR2 levels (SSTR2) was “did not increase” and the “mRNA levels of Rad51, BRCA1, BRCA2” value [2] was “lower”. The “ER36 or ER56 levels” value (ER36 or ER56 [3]) was “not found to influence”, the “ER36 or ER56 levels” value (ER36 or ER56 [4]) was “not found to influence” and the number of colonies (QGP1.SSTR2 cells [5]) was “decreased”. The cumulative survival (QGP-1 tumors) was “significantly improved survival”, the cumulative survival (QGP-1 tumors; listed as Fulevestrant) was “significantly improved cumulative survival” and the “survival, up to” value (QGP-1 tumors; combination of irradiation (4 Gy) and fulvestrant (5 mg, subcutaneous)) was “up to 70 days”. For the same compound, the tumor volume (QGP-1 tumors; day 35 post treatment, irradiation and fulvestrant compared to irradiation alone) was “significant decrease”, the tumor volume size (QGP-1 tumors; fulvestrant alone (5 mg, subcutaneous)) was “decreased” and the “survival, until day” value (QGP-1 tumors; fulvestrant alone (5 mg, subcutaneous), untreated control not past day 18) was no more than 28 days. For the same compound, the survival (QGP-1 tumors; fulvestrant alone vs untreated control mice) was “significantly longer survival”, the tumor volume size (QGP-1 tumors; irradiation plus fulvestrant (5 mg, subcutaneous)) was “decreased” and the total cell growth (QGP-1 cells [6]) was “significant decrease”. For the same compound, the survival (QGP1.SSTR2 mice; compared to control mice) was “did not show significant differences”.
With `C[C@@H](O)[C@H](NC(=O)[C@@H]1CSSC[C@H](NC(=O)[C@@H](Cc2ccccc2)NC(=O)CN2CCN(CC(=O)[O-])CCN(CC(=O)[O-])CCN(CC(=O)[O-])CC2)C(=O)N[C@@H](Cc2ccc(O)cc2)C(=O)N[C@H](Cc2c[nH]c3ccccc23)C(=O)N[C@@H](CCCCN)C(=O)N[C@@H]([C@@H](C)O)C(=O)N1)C(=O)O.[177Lu+3]` [Lu-177 DOTA-TATE, lutetium Lu-177 DOTA-TATE] the cell count ([7]; 5.6 μCi Lu-177 DOTA-TATE alone, FIG. 10B) was “about 150”, the cell count ([7]; 14.6 μCi Lu-177 DOTA-TATE alone, FIG. 10C) was “less than 40” and the colony count (QGP1.SSTR2 cells [8]) was “about 40 cells”. The number of colonies (QGP1.SSTR2 cells [5]) was “decreased”, the “mice surviving at day 100” value (QGP1.SSTR2 mice; Lu-177-DOTA-TATE alone) was “less than 25%” and the survival (QGP1.SSTR2 mice; compared to control mice and mice treated with fulvestrant) was “significantly longer”. The tumor volume (QGP1.SSTR2 mice; day 7 and day 21 post injection, compared to control mice and mice treated with fulvestrant alone) was “significantly smaller”.
